Patent US5340806A, “Composition containing organogermanium compound and immunity adjusting agent comprising the composition” (Sanwa Kagaku Kenkyusho Co., Ltd., priority 1984, dated 1994)
Like-named read-outs stand apart in the source and are kept apart here.

Key:
[1] = system: spleen cells (PFC), Sarcoma 180 cancered mice; test: Antibody production ability in cancered mouse (spleen cell PFC); assay type: in vivo, ICR male mice; settings: oral for 5 days, depending on dosing amount; FIG. 9
Description: 2×10^6 cells of a mouse tumor cell (Sarcoma 180) were implanted under the skin of a side part of ICR male mice to form a solid cancer. The organogermanium compound (Compound No. 1 in Table 1) dissolved in 4% cattle serum albumin solution was orally dosed to the cancered mice for 5 days, after 9 days had elapsed from the implantation, 2×10^8 corpuscles of SRBC were injected in a tail vein of the mice for sensitization. After 4 days from the sensitization, spleen cells were extracted to measure of PFC therein, which was used as an index of the antibody productivity.

[2] = system: chronic B hepatitis; test: Chronic B hepatitis, 16 weeks, 30 mg/day/body (In Vivo Utilization Example 5); design: species or system human patients
[3] = system: chronic B hepatitis; test: Long term dosing in chronic B hepatitis (In Vivo Utilization Example 4); design: species or system human patients; settings: for Liver tissue improvement: Ballooning of cell: 4 patients; for Liver tissue improvement: Bridging necrosis: 9 patients; for Liver tissue improvement: Fatty degeneration: 11 patients; for Liver tissue improvement: Moderation of lobule: 15 patients; for Glisson's capsule improvement: Piecemeal necrosis: 17 patients; for Glisson's capsule improvement: Fibrosis: 23 patients; for Glisson's capsule improvement: Round cell infiltration / Liver tissue improvement: Cobwebby necrosis / Liver tissue improvement: Degenerative necrosis in cell / Liver tissue improvement: Mobilization image of Kupfer cell: 24 patients
Description: A capsule containing the organogermanium compound was dosed to patients infected with chronic B hepatitis over a long period of time at a rate of 30 mg/day/body as the effective compound to check safety and effectiveness.
(a) Number of patients for analysis: 34 persons.
(b) Mean dosing period of time: 55 weeks.
(c) Number of patients who continuously dose over 48 weeks: 26 persons.

[4] = system: HIV (Human Immunodeficiency Virus); assay type: in vivo; settings: for OKT4/8 ratio: before 0.36±0.03; for OKT4-value: before 463±64/μl
Description: Effects of the organogermanium compound are checked by giving the capsule obtained in Pharmaceutical Composition Preparing Example 7 to 6 patients infected by HIV (Human Immunodeficiency Virus), who are male hemophiliacs (Age: 6 to 22 years old) recognized as asymptomatic carriers, and among them 5 patients were positive to HIV and 1 patient was negative to HIV.
To each patient, the capsule was given in a dose of 80 mg/day for the patients of 10 years old or over and 40 mg/1 day for the patients less than 10 years old, for 9 months. The number of blood lymphocytes, OKT4 -value, OKT8 -value and OKT4/8 ratio, as well as the change in the virus marker (HIV, HIV antigen and HIV antibody) in blood of the patients were monitored. The separation of the HIV was carried out in accordance with the CDC (Communicable Disease Center) method, and the measurement of the HIV antigen was carried out using the Western blotting method.

[5] = system: BALB/C mouse lymphocytes; test: Antibody production in culture system of BALB/C mouse lymphocytes; assay type: cell-based, BALB/C male mice
[6] = system: adjuvant arthritis in rats; test: Adjuvant arthritis in rats; assay type: in vivo, S.D. male rats; settings: 100 mg/kg/day oral, FIG. 12
Description: 0.05 ml of an adjuvant (prepared by suspending 0.6 mg of micobacteriumbutircum into 0.05 ml of liquid paraffin) was injected under the skin of a hind leg heel in S.D. male rats. After 1, 3, 5, 7, 21, and 28 days from the adjuvant dosage, the volume of the dosed and non-dosed legs was measured to determine a ratio of the edema.
The organogermanium compound was orally dosed for 28 days after the adjuvant dosage, in an amount of 1, 10 and 100 mg/kg/day, respectively.

[7] = system: chronic B hepatitis; assay type: in vivo, human patients
Description: Search on utility or effectiveness of the organogermanium compound on patients who are infected with chronic B hepatitis, or with non A non B hepatitis, and show "positive" to HBe antigen as well as a preferable amount of dose thereof.
The amount of dose has been set as follows, by taking the results given in In Vivo Utilization Example 1 into consideration.
(a) 30 mg/day/body showing most preferable data in effectiveness, and
(b) 15 mg/day/body (half amount).
Experimental period of time was set for 12 weeks.
(a) Examination of liver functions (GOT, GPT, total bilirubin, LDH, y-GTP, and y-globulin), and
(b) Examination with use of HBV marker (HBe-Ag).

3-oxygermylpropionic acid [Compound No. 1]
ability to produce antibodies (PFC) [1]: the ability to produce antibodies recovers towards a normal level
suppressor T lymph cell and other CD8 positive cells ([2]; Two-color analysis): A significant reduction
HBe antigen ([2]; after 8 and 12 weeks): A significant reduction of HBe antigen
HBe antibody ([2]; after 8 weeks): Significant increase of HBe antibody
patients changed to SC ([2]; among 33 HBe antigen positive): 2 Patients
patients changed from positive to negative DNA-polymerase ([2]; end of experiment, 4 patients): 14%
improvement in liver functions, HBe antigen positive versus negative groups ([2]; in vivo): no significant difference
ratio of improvement in functions of liver ([2]; middle or more): 30%
ratio of improvement in functions of liver ([2]; slight or more): 50%
modification or decomposition in contact with water (control composition (water)): a modification or decomposition occurs
lapsed time at which disturbance in the absorption spectrum was first observed (control: water in lieu of serum albumin, 25° C): 24 h
disturbance in the absorption spectrum (control: water, after 60 hours): the disturbance was further increased
ratio of improvement in functions of liver (at least slight), judgement of doctor in charge ([3]; 30 mg/day/body, mean 55 weeks): 63%
ratio of improvement in functions of liver (at least slight), secondary judgement of committee ([3]; 30 mg/day/body, mean 55 weeks): 59%
patients changed to SC (seroconversion) ([3]; among 23 HBe antigen positive): 3 patients
patients changed to SN (seronegative) ([3]; among 23 HBe antigen positive): 3 patients
ratio of disappearance of HBe antigen ([3]; among 23 HBe antigen positive): 26%
Liver tissue improvement: Evaluation ([3]; ≥middle, 3/24): 12.5%
Liver tissue improvement: Ballooning of cell ([3]; ≥middle): 0%
Liver tissue improvement: Bridging necrosis ([3]; ≥middle): 22.2%
Liver tissue improvement: Fatty degeneration ([3]; ≥middle): 0%
Liver tissue improvement: Moderation of lobule ([3]; ≥middle): 0%
Glisson's capsule improvement: Piecemeal necrosis ([3]; ≥middle): 17.6%
Glisson's capsule improvement: Fibrosis ([3]; ≥middle): 8.7%
Glisson's capsule improvement: Round cell infiltration ([3]; ≥middle): 0%
Liver tissue improvement: Cobwebby necrosis ([3]; ≥middle): 16.7%
Liver tissue improvement: Degenerative necrosis in cell ([3]; ≥middle): 16.7%
Liver tissue improvement: Mobilization image of Kupfer cell ([3]; ≥middle): 16.7%
Liver tissue improvement: Ballooning of cell ([3]; ≥slight): 50.0%
Liver tissue improvement: Bridging necrosis ([3]; ≥slight): 33.3%
Liver tissue improvement: Evaluation ([3]; ≥slight, 10/24): 41.7%
Liver tissue improvement: Fatty degeneration ([3]; ≥slight): 9.1%
Liver tissue improvement: Moderation of lobule ([3]; ≥slight): 6.7%
Glisson's capsule improvement: Piecemeal necrosis ([3]; ≥slight): 29.4%
Glisson's capsule improvement: Fibrosis ([3]; ≥slight): 17.4%
Glisson's capsule improvement: Round cell infiltration ([3]; ≥slight): 12.5%
Liver tissue improvement: Cobwebby necrosis ([3]; ≥slight): 37.5%
Liver tissue improvement: Degenerative necrosis in cell ([3]; ≥slight): 37.5%
Liver tissue improvement: Mobilization image of Kupfer cell ([3]; ≥slight): 41.7%
side-effect in clinical observation ([4]; 9 months): did not show any side-effect
OKT4/8 ratio ([4]; after 1 month): 0.42±0.02
OKT4-value ([4]; after 2 months): 549 ± 89 µL⁻¹
OKT4/8 ratio ([4]; after 3 months): 0.51±0.06
OKT4/8 ratio ([4]; after 6 months): 0.54±0.05
OKT4-value ([4]; after 6 months): 629 ± 97 µL⁻¹
OKT8-value ([4]; after 6 months, before 1303±174/μl): 1154 ± 153 µL⁻¹
number of lymphocytes ([4]; after 6 months, before 2430±311/μl): 2349 ± 312 µL⁻¹
HIV disappeared (persons) ([4]; among 5 HIV positive patients, dosage over 6 months): 3 persons
no change in virus marker (persons) ([4]; among 5 HIV positive patients, over 9 months): 2 persons
change in OKT4-value ([4]; human, in vivo): a certain increasing tendency
change in OKT4/8 ratio ([4]; human, in vivo): a slow increase in the ratio
change in OKT8-value ([4]; human, in vivo): a certain decreasing tendency
change in number of lymphocytes ([4]; human, in vivo): No noticeable change
some increase in appetite and body weight (persons) ([4]; human, in vivo): 2 persons
antibody producing function ([5]; 10 μg/ml, FIG. 10b): an acceleration of the function
antibody producing function ([5]; 1 to 2 μg/ml): no change
effect on secondary phlegmasia after 14 to 28 days [6]: an inhibition effect to a secondary phlegmasia
Effectiveness (slight or more) ([7]; 15 mg/day): 38%
General judgement: Improvement (slight or more) ([7]; 15 mg/day): 36%
Effectiveness (slight or more) ([7]; 30 mg/day): 60%
General judgement: Improvement (slight or more) ([7]; 30 mg/day): 62%
GOT change ([7]; 30 mg/day, 12 weeks): .dwnarw. ***
GPT change ([7]; 30 mg/day, 12 weeks): .dwnarw. ***
HBe-Ag (log conversion) change ([7]; 30 mg/day, 12 weeks): .dwnarw. +
LDH change ([7]; 30 mg/day, 12 weeks): .dwnarw. *
